Values after ≈ are worked out from the molar mass of the structure shown. Bridge positions count the residues as written; N and C are the ends. Square brackets hold non-standard residues; d marks the D form. Peptide text beside a SMILES is read from it. S5 = C=CCCC[C@](C)(N)C(=O)O
How the values were obtained:
Pseudomonas aeruginosa [1] = assay: Antibacterial activity against Pandrug-resistant Pseudomonas aeruginosa assessed as inhibition of bacterial growth measured after 24 hrs by broth microdilution method; format: functional
Staphylococcus aureus = assay: Antibacterial activity against Staphylococcus aureus ATCC 25923 assessed as inhibition of bacterial growth measured after 24 hrs by broth microdilution method; format: functional
Pseudomonas aeruginosa [2] = assay: Antibacterial activity against Carbapenem-resistant Pseudomonas aeruginosa assessed as inhibition of bacterial growth measured after 24 hrs by broth microdilution method; format: functional
Klebsiella pneumoniae [3] = assay: Antibacterial activity against Carbapenem-resistant Klebsiella pneumoniae assessed as inhibition of bacterial growth measured after 24 hrs by broth microdilution method; format: functional
Acinetobacter baumannii = assay: Antibacterial activity against Pandrug-resistant Acinetobacter baumannii assessed as inhibition of bacterial growth measured after 24 hrs by broth microdilution method; format: functional
Klebsiella pneumoniae [4] = assay: Antibacterial activity against Klebsiella pneumoniae ATCC 13883 assessed as inhibition of bacterial growth measured after 24 hrs by broth microdilution method; format: functional
Shigella flexneri = assay: Antibacterial activity against Shigella flexneri 301 assessed as inhibition of bacterial growth measured after 24 hrs by broth microdilution method; format: functional
Salmonella typhimurium = assay: Antibacterial activity against Salmonella typhimurium assessed as inhibition of bacterial growth measured after 24 hrs by broth microdilution method; format: functional, Salmonella enterica subsp. enterica serovar Typhimurium; settings: Salmonella enterica
Pseudomonas aeruginosa [5] = assay: Antibacterial activity against Pseudomonas aeruginosa PAO1 assessed as inhibition of bacterial growth measured after 24 hrs by broth microdilution method; format: functional
[6] = Hemolytic activity in human RBC assessed as hemolysis incubated for 1 hr by microplate reader; format: toxicity, cell-based, Erythrocyte; settings: erythrocyte, 1 h

| SMILES | MIC (Pseudomonas aeruginosa [1]) [µM] | MIC (Staphylococcus aureus) [µM] | MIC (Pseudomonas aeruginosa [2]) [µM] | MIC (Klebsiella pneumoniae [3]) [µM] | MIC (Acinetobacter baumannii) [µM] | MIC (Klebsiella pneumoniae [4]) [µM] | MIC (Shigella flexneri) [µM] | MIC (Salmonella typhimurium) [µM] | MIC (Pseudomonas aeruginosa [5]) [µM] | Activity [6] |
| --- | --- | --- | --- | --- | --- | --- | --- | --- | --- | --- |
| CC[C@H](C)[C@H](NC(=O)CNC(=O)[C@H](CC(=O)O)NC(=O)[C@H](CCCNC(=N)N)NC(=O)[C@@H](NC(=O)[C@H](CC(N)=O)NC(=O)[C@H](CCC(N)=O)NC(=O)CNC(=O)[C@@H](NC(=O)[C@H](CCCCN)NC(=O)[C@H](CCC(=O)O)NC(=O)[C@@H](NC(=O)[C@H](CCCCN)NC(=O)[C@H](CCCCN)NC(=O)[C@H](Cc1ccccc1)NC(=O)[C@H](CC(C)C)NC(=O)[C@H](CCCCN)NC(=O)[C@H](Cc1c[nH]c2ccccc12)NC(=O)[C@H](CCCCN)NC(C)=O)[C@@H](C)CC)C(C)C)[C@@H](C)CC)C(=O)N[C@H](C(=O)N[C@@H](CCCCN)C(=O)N[C@@H](C)C(=O)NCC(=O)N1CCC[C@H]1C(=O)N[C@@H](C)C(=O)N[C@H](C(=O)N[C@@H](C)C(=O)N[C@@]1(C)CCC/C=C\CCC[C@@](C)(C(=O)N[C@H](C(=O)N[C@@H](CCC(N)=O)C(=O)N[C@H](C(=O)N[C@@H](C)C(=O)N[C@@H](CCCCN)C(N)=O)[C@@H](C)CC)[C@@H](C)O)NC(=O)[C@H](CCC(N)=O)NC(=O)CNC(=O)[C@H](C(C)C)NC1=O)C(C)C)[C@@H](C)CC (Ac-KWKLFKKIEKVGQNIRDGIIKAGPAVA[S5]VGQ[S5]TQIAK-NH2; staple (Z) 28-32) | 25 (≈ 103 µg/mL) | 3.13 (≈ 12.9 µg/mL) | > 100 | 6.25 (≈ 25.8 µg/mL) | < 0.78 | 3.13 (≈ 12.9 µg/mL) | 1.56 (≈ 6.44 µg/mL) | 6.25 (≈ 25.8 µg/mL) | 6.25 (≈ 25.8 µg/mL) | – |
| CC[C@H](C)[C@H](NC(=O)CNC(=O)[C@H](CC(=O)O)NC(=O)[C@H](CCCNC(=N)N)NC(=O)[C@@H](NC(=O)[C@H](CC(N)=O)NC(=O)[C@H](CCC(N)=O)NC(=O)CNC(=O)[C@@H](NC(=O)[C@H](CCCCN)NC(=O)[C@H](CCC(=O)O)NC(=O)[C@@H](NC(=O)[C@H](CCCCN)NC(=O)[C@H](CCCCN)NC(=O)[C@H](Cc1ccccc1)NC(=O)[C@H](CC(C)C)NC(=O)[C@H](CCCCN)NC(=O)[C@H](Cc1c[nH]c2ccccc12)NC(=O)[C@H](CCCCN)NC(C)=O)[C@@H](C)CC)C(C)C)[C@@H](C)CC)C(=O)N[C@H](C(=O)N[C@@H](CCCCN)C(=O)N[C@@H](C)C(=O)NCC(=O)N1CCC[C@H]1C(=O)N[C@@H](C)C(=O)N[C@@]1(C)CCC/C=C\CCC[C@@](C)(C(=O)N[C@@H](CCC(N)=O)C(=O)N[C@@H](C)C(=O)N[C@H](C(=O)N[C@@H](CCC(N)=O)C(=O)N[C@H](C(=O)N[C@@H](C)C(=O)N[C@@H](CCCCN)C(N)=O)[C@@H](C)CC)[C@@H](C)O)NC(=O)[C@H](C(C)C)NC(=O)[C@H](C(C)C)NC(=O)[C@H](C)NC1=O)[C@@H](C)CC (Ac-KWKLFKKIEKVGQNIRDGIIKAGPA[S5]AVV[S5]QATQIAK-NH2; staple (Z) 26-30) | 25 (≈ 104 µg/mL) | 3.13 (≈ 13 µg/mL) | > 100 | 12.5 (≈ 51.8 µg/mL) | < 0.78 | 3.13 (≈ 13 µg/mL) | 1.56 (≈ 6.46 µg/mL) | 6.25 (≈ 25.9 µg/mL) | 6.25 (≈ 25.9 µg/mL) | Non-toxic |
| CC[C@H](C)[C@H](NC(=O)CNC(=O)[C@H](CC(=O)O)NC(=O)[C@H](CCCNC(=N)N)NC(=O)[C@@H](NC(=O)[C@H](CC(N)=O)NC(=O)[C@H](CCC(N)=O)NC(=O)CNC(=O)[C@@H](NC(=O)[C@H](CCCCN)NC(=O)[C@H](CCC(=O)O)NC(=O)[C@@H](NC(=O)[C@H](CCCCN)NC(=O)[C@H](CCCCN)NC(=O)[C@H](Cc1ccccc1)NC(=O)[C@H](CC(C)C)NC(=O)[C@H](CCCCN)NC(=O)[C@H](Cc1c[nH]c2ccccc12)NC(=O)[C@H](CCCCN)NC(C)=O)[C@@H](C)CC)C(C)C)[C@@H](C)CC)C(=O)N[C@H](C(=O)N[C@@H](CCCCN)C(=O)N[C@@H](C)C(=O)NCC(=O)N1CCC[C@H]1C(=O)N[C@@]1(C)CCC/C=C\CCC[C@@](C)(C(=O)NCC(=O)N[C@@H](CCC(N)=O)C(=O)N[C@@H](C)C(=O)N[C@H](C(=O)N[C@@H](CCC(N)=O)C(=O)N[C@H](C(=O)N[C@@H](C)C(=O)N[C@@H](CCCCN)C(N)=O)[C@@H](C)CC)[C@@H](C)O)NC(=O)[C@H](C(C)C)NC(=O)[C@H](C)NC(=O)[C@H](C(C)C)NC1=O)[C@@H](C)CC (Ac-KWKLFKKIEKVGQNIRDGIIKAGP[S5]VAV[S5]GQATQIAK-NH2; staple (Z) 25-29) | 25 (≈ 103 µg/mL) | 3.13 (≈ 12.9 µg/mL) | > 100 | 6.25 (≈ 25.8 µg/mL) | < 0.78 | 3.13 (≈ 12.9 µg/mL) | 1.56 (≈ 6.44 µg/mL) | 3.13 (≈ 12.9 µg/mL) | 6.25 (≈ 25.8 µg/mL) | Non-toxic |
